Measured values as given in patent EP0623616A1, “Heterocyclic compounds and process for the preparation thereof” (EGIS GYOGYSZERGYAR RT., priority 1993, dated 1994).
Like-named read-outs stand apart in the source and are kept apart here.

How the values were obtained:
[1] = tested on: Male rats belonging to the Spraghe Dawley strain; assay: Elevated plus maze test on rat; format: in vivo; settings: for MED: p.o., minimum effective dose causing a significant increase of time spent on the open arms, rats, pretreatment 60 minutes
Experimental: The test was carried out with the aid of a wooden plus-shaped maze elevated to a height of 50 cm. Two arms (100 cm long and 15 cm wide) - opposite to one another - were enclosed up to a height of 40 cm along their longer sides and at the end. The other two arms were without walls (open arms). The central 15x15 cm part was open. Male rats belonging to the Spraghe Dawley strain and weighing 220 to 260 g were used as test animals. After pretreatment lasting 60 minutes the animals were placed into the central part of the maze. During the 5 minutes observation period the following parameters were recorded: • time spent on the open arms • time spent on the closed arms • number of open arm entries • number of closed arm entries.
The drug effect was expressed as percent increase of the time spent on the open arms and number of open arm entries. The minimum effective dose which caused a significant increase of the time spent on the open arms was calculated for every substance [Pelow, S., Chopin, P., File, S.E., Briley, M.:J. Neurosci. Methods 14, 149-167 (1985)].

mice [2] = assay: Effect on the spontaneous motor activity (method of Borsy et al., 10-channel Dews system); format: in vivo; settings: for Mobility inhibition ID50: treated orally, 1 hour after treatment, interruptions of infrared beam within 30 minutes
Experimental: The test was carried out according to the method of Borsy et al. Groups consisting of 3 mice each were treated orally with different doses of the compounds to be tested 1 hour after treatment with the test compound or the vehicle the animals were placed into a 10-channel Dews system equipment. In this equipment the number of interruptions of infrared beam within 30 minutes was counted. From these date 50% inhibiting doses (IC₅₀) were determined with the aid of a line of regression [Borsy, J., Csanyi, E., Lazar, I.: Arch. Int. Pharmacodyn. 124, a (1960)].

Male Wistar rats [3] = assay: Vogel test (drinking conflict test); format: in vivo; settings: for MED: minimum effective dose, increase of tolerated shocks, rats, intraperitoneally half an hour before testing
Experimental: Male Wistar rats of 160 to 180 g body weight were kept free of food and drinking water for 24 and 48 hours, respectively. Test and carrier substances were administered intraperitoneally half an hour before testing. Animals within the experimental chamber were provided with drinking water through an inserted tube. After the animals' each twenty lapping for water the device emitted a 2 mA intensity electric shock through the drinking tube. During 5 minutes the shocks tolerated by the animals in order to quench their thirst were counted. The effect of treatment was expressed as the % increase of the tolerated shocks. The minimum effective dose (MED) was determined for each test compound [Vogel, J.R., Beer, B., Clody, D.E.:Psychopharmacologia (Berl.)21, 1(1971)].

Male Wistar rats [4] = assay: Conditioned avoidance response inhibition (shuttle box); format: in vivo; settings: for Conditioned relfex ID50: rats, 50% inhibiting dose, dosing one hour before the measurement, oral
Experimental: The antipsychotic (neuroleptic) effect was measured by the inhibition of the learned conditioned avoidance reflex. The male Wistar rats used for the study were of 120 to 150 g body weight at the beginning of learning. A shuttle box was used as experimental device, it consisted of two parts, 24x24,5x23 cm each, separated by a wall with a 6x9 cm gate. In response to a suitable warning stimulus, in order to avoid the punishing (unconditioned) stimulus, animals within the box passed through the gate from one part to the other. The warning, i.e. conditioned stimulus (CS), a white light (1 Hz) blinking for 15 seconds, was applied at the actual place of the animal. The unconditioned stimulus (US), in form of 0,6 mA intensity electric shock, was randomly applied to the paw during the last 5 seconds of the conditioned stimulus. The animal's movement during the CS and US from one part of the box to the other was defined as avoidance and escape response, respectively. Both responses ceased the actual stimulus and stopped the trial. The time elapsed until the next trial (intertrial interval, ITI) was 15 seconds. While one experiment was carried out daily, an experiment consisted of 80 trials. Learning efficiency was expresses as percentage of the successful to the total avoidances. Effect of the neuroleptic drugs was examined in animals with stabilized conditioned reflexes and with at least 75% learning efficiency. Dosing was carried out once a week, one hour before the measurement in the shuttle box. To calculate the neuroleptic effect (50% inhibiting dose, ID₅₀), the results obtained after the treatment were compared to those obtained on the previous day (controls).

mice [5] = settings: value taken from literature (Drugs of Future 10(II), 731 (1985)); cited from earlier work
Male Wistar rats [6] = settings: value taken from literature (J. Med. Chem. 29(3), 363(1986); Drugs of Future 10(II), 731(1985)); cited from earlier work
[7] = Vogel test, ratio of MED values

Molecule	MED [1]	Mobility inhibition ID50 (mice [2])	MED (Male Wistar rats [3]) [mg/kg]	Conditioned relfex ID50 (Male Wistar rats [4])	further results
8-{4-[4-(1,2-Benzisothiazol-3-yl)-1-piperazinyl]-but-2-ynyl}-8-azaspiro[4,5]decane-7,9-dione [Example 1]	2,5 mg/kg	ineffective(>100) mg/kg	5.0	30,0 mg/kg	effectiveness relative to Ritanserin ([1]; elevated plus maze, ratio of MED values): twice as effective; influence on the spontaneous motor activity (mice [2]; result in words): does not influence the spontaneous motor activity; effectiveness relative to chlorodiazepoxide (Male Wistar rats [3]; [7]): twice as effective; times as effective as Meprobamate (Male Wistar rats [3]; [7]): 5; influence on the conditioned avoidance response (Male Wistar rats [4]; up to an oral dose of 30 mg/kg, result in words): does not influence the conditioned avoidance response
CN(C)CCCN1c2ccccc2Sc2ccc(Cl)cc21 [Chloropromazine]	–	–	–	13,2 mg/kg	–
CCCC(C)(COC(N)=O)COC(N)=O [Meprobamate]	>10,0 mg/kg	–	25.0	–	–
CN1C(=O)CN=C(c2ccccc2)c2cc(Cl)ccc21 [Diazepam]	–	23,0 mg/kg	–	–	–
O=C(CCCN1CCC(O)(c2ccc(Cl)cc2)CC1)c1ccc(F)cc1 [Haloperidol]	–	–	–	0,6 mg/kg	–
Cc1nc2sccn2c(=O)c1CCN1CCC(=C(c2ccc(F)cc2)c2ccc(F)cc2)CC1 [Ritanserin]	5,0 mg/kg	–	–	–	–
O=C1CC2(CCCC2)CC(=O)N1CCCCN1CCN(c2nsc3ccccc23)CC1 [Thiaspiron, thiaspiron]	–	–	–	–	Mobility inhibition ID50 (mice [5]): 8,4 mg/kg; Conditioned relfex ID50 (Male Wistar rats [6]): 10,5 mg/kg
CNC1=Nc2ccc(Cl)cc2C(c2ccccc2)=[N+]([O-])C1 [Chlorodiazepoxide]	–	56,0 mg/kg	10.0	–	–
